From ChEMBL document CHEMBL1201862, “PubChem BioAssay data set” (2004) come the findings set out here.

Among the test systems are 786-0; CAKI-1; CCRF-CEM; COLO 205; HCC 2998; HCT-116; K562; LOX IMVI; M14; MCF7; MOLT-4; Malme-3M; NCI-H23; NCI-H460; NCI/ADR-RES; OVCAR-5; SK-OV-3; SNB-75; SF-539.
What all share (assay): NCI anticancer screen, dose series, 48 h

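Interpolation was linear, between the two tested concentrations surrounding the appropriate level; five concentrations were tested over 48 hours in 96-well plates. GI50 marks 50% less growth.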 Calls of active or inactive are those of the source. Rule as the data show it: active = GI50 up to about 1.1 µM and inactive = higher.

With `C#CC(O)/C=C/C(O)CCCC(O)CC#CC(O)C#CC(O)CCCC(O)/C=C/CCCCCC(=O)CCCCCCCCCCCCCC(O)C(O)C#CC(=O)O` (stereo unspecified), the GI50 in the assay on 786-0 is > 50 µM (inactive); with CAKI-1, > 50 µM (inactive); with CCRF-CEM, 14.3 µM (inactive); in the assay with COLO 205, > 50 µM (inactive); with HCC 2998, > 50 µM (inactive); with HCT-116, > 50 µM (inactive). Also, the GI50 in the assay on K562 is > 50 µM (inactive); in the assay with LOX IMVI it was 12.8 µM (inactive); with M14, > 50 µM (inactive); in the assay with MCF7, 14.3 µM (inactive); with MOLT-4, 14 µM (inactive); in the assay on Malme-3M, > 50 µM (inactive). Also, the GI50 in the assay on NCI-H23 is > 50 µM (inactive); with NCI-H460, > 50 µM (inactive); with NCI/ADR-RES, > 50 µM (inactive); with OVCAR-5 it was > 50 µM (inactive); in the assay with SK-OV-3, > 50 µM (inactive); in the assay with SNB-75, 12.3 µM (inactive).
As for `COc1ccc(CN2C(=O)CCC/C=C\[C@H]2CI)cc1`, the GI50 was 14 µM (inactive) in the assay on 786-0; 10.3 µM (inactive) in the assay on CAKI-1; 13.9 µM (inactive) with COLO 205; 11.6 µM (inactive) in the assay with HCC 2998; 11.7 µM (inactive) in the assay on HCT-116; 6.97 µM (inactive) in the assay with K562. The GI50 is 17.6 µM (inactive) in the assay with LOX IMVI; 10.7 µM (inactive) in the assay on M14; 10.7 µM (inactive) in the assay on MCF7; 10.1 µM (inactive) in the assay with MOLT-4; 11.1 µM (inactive) in the assay on Malme-3M; 15.1 µM (inactive) with NCI-H23. Besides, the GI50 is 13.1 µM (inactive) in the assay with NCI-H460; 13.7 µM (inactive) in the assay with NCI/ADR-RES; 12.1 µM (inactive) in the assay with OVCAR-5; 13.6 µM (inactive) in the assay with SF-539; 16 µM (inactive) with SK-OV-3; 2.41 µM (inactive) with SNB-75.
Consider `Cc1cc(-c2ccc[nH]2)on1`, for which the GI50 in the assay with 786-0, in the assay with CAKI-1, with CCRF-CEM, in the assay with COLO 205, in the assay with HCC 2998 and in the assay with HCT-116 was > 100 µM (inactive) throughout. The GI50 with K562, with M14, in the assay with MCF7, with MOLT-4, in the assay on Malme-3M and in the assay on NCI-H23 was > 100 µM (inactive) each time. The GI50 in the assay on NCI-H460, with NCI/ADR-RES, in the assay with OVCAR-5, with SK-OV-3 and in the assay with SNB-75 was > 100 µM (inactive) each time.
For the compound `C(=N/Nc1ccc(-c2nc3ccccc3[nH]2)cc1)/c1c(-c2ccccc2)[nH]c2ccccc12`, the GI50 in the assay with 786-0 was 0.465 µM (active); in the assay with CAKI-1, 0.53 µM (active); with CCRF-CEM, 0.443 µM (active); in the assay on HCC 2998, 0.168 µM (active); in the assay on HCT-116 it was 0.424 µM (active); with K562, 0.176 µM (active). Also, the GI50 in the assay with LOX IMVI is 0.759 µM (active); in the assay with M14 it was 0.215 µM (active); in the assay on MCF7 it was 0.361 µM (active); with MOLT-4, 0.658 µM (active); with NCI-H23, 0.973 µM (active); in the assay with NCI-H460, 0.315 µM (active). For the same compound, the GI50 in the assay with NCI/ADR-RES was 0.286 µM (active); with SF-539, 0.444 µM (active); with SK-OV-3 it was 0.32 µM (active); in the assay with SNB-75, 0.703 µM (active).
Regarding `CN(Cc1cc(Cl)c(Cl)cc1NC(=O)CN)[C@H]1CCCC[C@@H]1N1CCCC1`, the GI50 with 786-0 was 17.1 µM (inactive); with CAKI-1, 92.7 µM (inactive); in the assay on CCRF-CEM, 30.3 µM (inactive); with COLO 205, 15.2 µM (inactive); in the assay with HCC 2998 it was 17.2 µM (inactive); in the assay on HCT-116, 20.8 µM (inactive). Further, the GI50 in the assay with K562 is 17.8 µM (inactive); with LOX IMVI it was 15.4 µM (inactive); with M14 it was 17.1 µM (inactive); in the assay with MCF7 it was 32.4 µM (inactive); with MOLT-4, 28.8 µM (inactive); in the assay with Malme-3M it was 18.3 µM (inactive). The GI50 in the assay with NCI-H23 is > 100 µM (inactive); in the assay with NCI-H460, 21.8 µM (inactive); in the assay with NCI/ADR-RES, > 100 µM (inactive); in the assay on OVCAR-5 it was 46.3 µM (inactive); in the assay with SK-OV-3 it was > 100 µM (inactive); in the assay with SNB-75 it was > 100 µM (inactive).
With `CCCCc1ccc(-n2sc3ncc(C)cc3c2=O)cc1`, the GI50 is 34.9 µM (inactive) in the assay with 786-0; 8.18 µM (inactive) with CCRF-CEM; 20.5 µM (inactive) with COLO 205; 37.5 µM (inactive) in the assay with HCC 2998; 78 µM (inactive) in the assay with HCT-116; 43.9 µM (inactive) in the assay on K562. The GI50 was 18.2 µM (inactive) in the assay with LOX IMVI; 13.4 µM (inactive) in the assay with M14; 19.5 µM (inactive) in the assay with MCF7; 25.2 µM (inactive) in the assay on MOLT-4; 25.8 µM (inactive) in the assay with Malme-3M; 30.1 µM (inactive) with NCI-H23. Besides, the GI50 is 12.6 µM (inactive) in the assay on NCI-H460; 27.6 µM (inactive) with NCI/ADR-RES; 22.7 µM (inactive) with OVCAR-5; 28.6 µM (inactive) in the assay with SK-OV-3; 42.9 µM (inactive) in the assay with SNB-75.
`N#CCCC1(CCC#N)CCCCCCCCC(CCC#N)(CCC#N)C(=O)C1=O`: the GI50 is > 100 µM (inactive) in the assay on 786-0; > 100 µM (inactive) with CAKI-1; > 100 µM (inactive) in the assay with COLO 205; > 100 µM (inactive) with HCC 2998; > 100 µM (inactive) in the assay on HCT-116; 83.9 µM (inactive) with K562. For the same compound, the GI50 in the assay on LOX IMVI, in the assay on M14, in the assay on MCF7, in the assay on Malme-3M, with NCI-H23 and in the assay on NCI-H460 was > 100 µM (inactive) in each case. The GI50 was > 100 µM (inactive) in the assay on NCI/ADR-RES; > 100 µM (inactive) in the assay on OVCAR-5; 44.6 µM (inactive) in the assay with SF-539; > 100 µM (inactive) in the assay on SK-OV-3; 63.8 µM (inactive) in the assay on SNB-75.
As to `CC1=NN(c2nc(N)nc(CF)n2)C(C)(C)C1`, the GI50 in the assay with 786-0, with CAKI-1, in the assay on CCRF-CEM, in the assay on COLO 205, in the assay with HCC 2998 and in the assay on HCT-116 was > 100 µM (inactive) in each case. Besides, the GI50 in the assay with K562 is 49.3 µM (inactive); in the assay with LOX IMVI, > 100 µM (inactive); with M14, > 100 µM (inactive); in the assay with MCF7 it was > 100 µM (inactive); in the assay on MOLT-4, > 100 µM (inactive); with NCI-H23, > 100 µM (inactive). The GI50 with NCI-H460, with NCI/ADR-RES, in the assay with SF-539, in the assay with SK-OV-3 and with SNB-75 was > 100 µM (inactive) throughout.
In the case of `CC1(C)O[C@@H]2[C@@H](COC(=O)c3ccccc3)C[C@@H](C#N)[C@@H]2O1`, the GI50 with 786-0, in the assay with CCRF-CEM, in the assay on COLO 205, in the assay on HCC 2998, with HCT-116 and with K562 was > 100 µM (inactive) each time. Moreover, the GI50 in the assay on LOX IMVI, with M14, in the assay with MCF7, in the assay on MOLT-4, in the assay on Malme-3M and with NCI-H23 was > 100 µM (inactive) in each case. Further, the GI50 in the assay with NCI-H460, in the assay on NCI/ADR-RES, with OVCAR-5, with SF-539, in the assay with SK-OV-3 and in the assay with SNB-75 was > 100 µM (inactive) in each case.
On to `CCN(CC)CCNc1ccc2ncn3c4c(OC)ccc(OC)c4c(=O)c1c23`, for which the GI50 is 11.5 µM (inactive) with 786-0; 86.5 µM (inactive) in the assay with CAKI-1; 1.22 µM (inactive) with CCRF-CEM; 0.841 µM (active) in the assay with COLO 205; 15.3 µM (inactive) with HCC 2998; 0.587 µM (active) in the assay with HCT-116. In addition, the GI50 with K562 is 10.4 µM (inactive); in the assay on M14, 18.7 µM (inactive); with MCF7, 3.57 µM (inactive); in the assay on MOLT-4, 1.45 µM (inactive); with Malme-3M it was 23.8 µM (inactive); in the assay on NCI-H23, 22.6 µM (inactive). In addition, the GI50 in the assay on NCI-H460 was 4.4 µM (inactive); with NCI/ADR-RES it was 5.6 µM (inactive); in the assay with SF-539 it was 20.8 µM (inactive); in the assay with SK-OV-3 it was 19.1 µM (inactive); in the assay with SNB-75, 10.6 µM (inactive).
In the case of `COc1cc2c(c(OC)c1OC)-c1ccc(=O)c(O)cc1[C@@H](NC(C)=O)CC2` [COLCHICEINE], the GI50 in the assay on 786-0 was 23.3 µM (inactive); in the assay on CAKI-1, 12.6 µM (inactive); with CCRF-CEM, 11.9 µM (inactive); in the assay on COLO 205, 19.4 µM (inactive); with HCC 2998, 15.3 µM (inactive); with HCT-116, 27.7 µM (inactive). Moreover, the GI50 in the assay on K562 was 15.6 µM (inactive); in the assay on LOX IMVI, 12.6 µM (inactive); in the assay on M14 it was 24.7 µM (inactive); in the assay on MCF7, 17 µM (inactive); with MOLT-4, 5.42 µM (inactive); with NCI-H23 it was 10.6 µM (inactive). For the same compound, the GI50 was 12.3 µM (inactive) in the assay on NCI-H460; 6.98 µM (inactive) in the assay with NCI/ADR-RES; 33.5 µM (inactive) with OVCAR-5; 19.1 µM (inactive) in the assay on SF-539; 40.5 µM (inactive) in the assay with SK-OV-3; 40.6 µM (inactive) with SNB-75.
